This assay deals with recombinant human ROCK-I (Homo sapiens, UniProt Q13464). Kind of assay: biochemical. As to conditions: IMAP fluorescence polarisation, dose response curve, read-out: plC50 (the source's name). The method, then:
Following a one hour incubation at room temperature in the dark, enzyme activity is detected by adding 60 μl of IMAP binding reagent (Molecular Devices) to each well.

Chain of recombinant human ROCK-I (Q13464 whole entry): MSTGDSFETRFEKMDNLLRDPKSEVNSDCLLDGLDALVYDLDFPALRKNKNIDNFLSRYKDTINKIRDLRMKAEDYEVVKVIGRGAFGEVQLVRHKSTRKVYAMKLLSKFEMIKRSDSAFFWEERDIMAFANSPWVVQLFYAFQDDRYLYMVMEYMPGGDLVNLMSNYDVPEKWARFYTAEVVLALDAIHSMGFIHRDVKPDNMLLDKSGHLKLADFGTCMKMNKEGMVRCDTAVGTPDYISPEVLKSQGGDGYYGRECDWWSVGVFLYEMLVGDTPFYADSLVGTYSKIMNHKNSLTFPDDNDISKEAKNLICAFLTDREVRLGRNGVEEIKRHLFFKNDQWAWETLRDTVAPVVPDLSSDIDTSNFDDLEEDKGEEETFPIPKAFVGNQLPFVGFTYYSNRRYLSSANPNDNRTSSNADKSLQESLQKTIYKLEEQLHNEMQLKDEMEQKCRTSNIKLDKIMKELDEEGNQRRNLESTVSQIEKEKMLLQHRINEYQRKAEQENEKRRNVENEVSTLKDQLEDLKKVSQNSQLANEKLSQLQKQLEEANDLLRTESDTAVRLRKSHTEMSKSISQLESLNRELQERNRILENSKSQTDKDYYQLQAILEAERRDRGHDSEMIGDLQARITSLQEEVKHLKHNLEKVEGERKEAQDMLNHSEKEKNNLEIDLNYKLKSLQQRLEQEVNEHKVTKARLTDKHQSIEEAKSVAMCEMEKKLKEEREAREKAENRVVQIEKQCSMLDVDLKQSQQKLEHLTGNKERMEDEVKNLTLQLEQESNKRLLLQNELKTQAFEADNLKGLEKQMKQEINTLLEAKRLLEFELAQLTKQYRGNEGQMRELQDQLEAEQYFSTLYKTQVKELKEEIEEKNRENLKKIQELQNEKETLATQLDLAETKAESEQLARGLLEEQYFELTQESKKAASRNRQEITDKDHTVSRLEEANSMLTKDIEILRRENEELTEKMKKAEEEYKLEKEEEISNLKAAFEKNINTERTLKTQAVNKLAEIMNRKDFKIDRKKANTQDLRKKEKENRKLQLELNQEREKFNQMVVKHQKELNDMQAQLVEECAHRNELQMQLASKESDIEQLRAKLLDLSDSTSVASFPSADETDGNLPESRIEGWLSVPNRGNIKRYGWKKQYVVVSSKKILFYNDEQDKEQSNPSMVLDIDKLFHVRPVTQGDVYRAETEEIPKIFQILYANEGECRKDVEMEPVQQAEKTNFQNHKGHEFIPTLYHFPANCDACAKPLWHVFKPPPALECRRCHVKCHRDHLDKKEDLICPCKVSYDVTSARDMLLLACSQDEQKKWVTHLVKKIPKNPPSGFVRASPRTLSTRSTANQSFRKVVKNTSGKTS

For `Nc1nccc2cc(S[C@H]3CC[C@@H](N)CC3)ccc12` [Example 4, Cis-6-(4-aminocyclohexylsulfanyl)isoquinolin-1-ylamine], the IC50 is under 316 nM.

These data come from US7893088B2, “6-substituted isoquinoline derivatives” (N.V. Organon, priority 2006, dated 2011).
